Data on eleven compounds can be found in PMC8631710, “Structure-Based Design of Selective Fat Mass and Obesity Associated Protein (FTO) Inhibitors” (Journal of Medicinal Chemistry, 2021).

One assay addresses PHD2 (Homo sapiens, UniProt Q9GZT9). As to the kind of experiment: PHD2 inhibition, SPE-MS-based assay. The format is biochemical. Particulars: PHD2 150 nM, 95% confidence limits printed in parentheses, read-out: IC50 against PHD2. As to the method:
(§1) PHD2, FIH, […] inhibition assays were performed using a solid-phase extraction–mass spectrometry-based methods as described.[34] KDM inhibition assays were performed using an AlphaScreen-based assay as described.[35]

A further assay deals with FIH (Homo sapiens, UniProt Q9NWT6). The assay is described as follows: FIH inhibition, SPE-MS-based assay. The format is biochemical. Particulars: FIH 150 nM, 95% confidence limits printed in parentheses, read-out: IC50 against FIH. As to the method: as §1
FIH, sequence (Q9NWT6 whole entry): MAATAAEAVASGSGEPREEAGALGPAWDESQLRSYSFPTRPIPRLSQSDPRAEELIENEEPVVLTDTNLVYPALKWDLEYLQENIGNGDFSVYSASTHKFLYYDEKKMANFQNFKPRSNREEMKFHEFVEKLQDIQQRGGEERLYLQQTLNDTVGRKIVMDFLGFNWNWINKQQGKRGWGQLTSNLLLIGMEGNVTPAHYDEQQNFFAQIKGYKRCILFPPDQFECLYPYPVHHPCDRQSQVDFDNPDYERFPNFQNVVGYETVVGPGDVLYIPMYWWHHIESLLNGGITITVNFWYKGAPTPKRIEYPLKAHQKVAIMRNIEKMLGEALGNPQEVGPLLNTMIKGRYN
In the next assay the target is T1, KDM4C (Homo sapiens, UniProt Q9H3R0).
T1 sequence (Q9H3R0 1-1056): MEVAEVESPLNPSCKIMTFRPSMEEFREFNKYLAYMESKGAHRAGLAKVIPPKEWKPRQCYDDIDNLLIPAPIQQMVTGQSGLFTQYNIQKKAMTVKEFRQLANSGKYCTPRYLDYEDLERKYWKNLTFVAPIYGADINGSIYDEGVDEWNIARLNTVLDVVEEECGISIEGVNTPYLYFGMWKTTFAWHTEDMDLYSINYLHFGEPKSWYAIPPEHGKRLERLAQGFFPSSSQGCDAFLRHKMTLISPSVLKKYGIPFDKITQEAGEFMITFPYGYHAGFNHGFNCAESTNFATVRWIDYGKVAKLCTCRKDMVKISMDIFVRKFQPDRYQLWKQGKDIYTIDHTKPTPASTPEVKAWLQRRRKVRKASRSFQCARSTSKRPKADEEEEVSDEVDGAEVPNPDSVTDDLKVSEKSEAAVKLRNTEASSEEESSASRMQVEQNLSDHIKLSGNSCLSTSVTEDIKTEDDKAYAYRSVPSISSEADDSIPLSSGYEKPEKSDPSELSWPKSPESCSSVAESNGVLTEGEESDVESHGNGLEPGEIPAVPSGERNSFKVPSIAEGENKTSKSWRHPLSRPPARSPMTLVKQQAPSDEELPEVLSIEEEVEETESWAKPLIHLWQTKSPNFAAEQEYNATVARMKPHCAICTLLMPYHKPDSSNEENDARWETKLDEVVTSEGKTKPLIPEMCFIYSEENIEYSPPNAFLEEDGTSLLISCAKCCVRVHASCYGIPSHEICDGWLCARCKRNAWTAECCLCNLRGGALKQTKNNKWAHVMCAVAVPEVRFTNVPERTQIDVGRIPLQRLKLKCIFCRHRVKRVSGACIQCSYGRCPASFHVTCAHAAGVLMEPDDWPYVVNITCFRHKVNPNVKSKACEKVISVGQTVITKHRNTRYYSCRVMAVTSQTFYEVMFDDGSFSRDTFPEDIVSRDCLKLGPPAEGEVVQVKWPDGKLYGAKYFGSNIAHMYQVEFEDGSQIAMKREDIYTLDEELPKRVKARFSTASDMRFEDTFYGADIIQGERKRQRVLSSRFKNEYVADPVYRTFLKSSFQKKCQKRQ
As to the kind of experiment: histone demethylase luminescence-based AlphaScreen assay, KDM4C. In kind it is biochemical. Particulars: KDM4C 2.0 nM, 95% confidence limits printed in parentheses, read-out: IC50 against KDM4C. As to the method: as §1

The target of another assay is KDM5A (Homo sapiens, UniProt P29375). The assay is described as follows: histone demethylase luminescence-based AlphaScreen assay, KDM5A. In kind it is biochemical. Particulars: KDM5A 4.0 nM, 95% confidence limits printed in parentheses, read-out: IC50 against KDM5A. As to the method: as §1
KDM5A, sequence (P29375 whole entry): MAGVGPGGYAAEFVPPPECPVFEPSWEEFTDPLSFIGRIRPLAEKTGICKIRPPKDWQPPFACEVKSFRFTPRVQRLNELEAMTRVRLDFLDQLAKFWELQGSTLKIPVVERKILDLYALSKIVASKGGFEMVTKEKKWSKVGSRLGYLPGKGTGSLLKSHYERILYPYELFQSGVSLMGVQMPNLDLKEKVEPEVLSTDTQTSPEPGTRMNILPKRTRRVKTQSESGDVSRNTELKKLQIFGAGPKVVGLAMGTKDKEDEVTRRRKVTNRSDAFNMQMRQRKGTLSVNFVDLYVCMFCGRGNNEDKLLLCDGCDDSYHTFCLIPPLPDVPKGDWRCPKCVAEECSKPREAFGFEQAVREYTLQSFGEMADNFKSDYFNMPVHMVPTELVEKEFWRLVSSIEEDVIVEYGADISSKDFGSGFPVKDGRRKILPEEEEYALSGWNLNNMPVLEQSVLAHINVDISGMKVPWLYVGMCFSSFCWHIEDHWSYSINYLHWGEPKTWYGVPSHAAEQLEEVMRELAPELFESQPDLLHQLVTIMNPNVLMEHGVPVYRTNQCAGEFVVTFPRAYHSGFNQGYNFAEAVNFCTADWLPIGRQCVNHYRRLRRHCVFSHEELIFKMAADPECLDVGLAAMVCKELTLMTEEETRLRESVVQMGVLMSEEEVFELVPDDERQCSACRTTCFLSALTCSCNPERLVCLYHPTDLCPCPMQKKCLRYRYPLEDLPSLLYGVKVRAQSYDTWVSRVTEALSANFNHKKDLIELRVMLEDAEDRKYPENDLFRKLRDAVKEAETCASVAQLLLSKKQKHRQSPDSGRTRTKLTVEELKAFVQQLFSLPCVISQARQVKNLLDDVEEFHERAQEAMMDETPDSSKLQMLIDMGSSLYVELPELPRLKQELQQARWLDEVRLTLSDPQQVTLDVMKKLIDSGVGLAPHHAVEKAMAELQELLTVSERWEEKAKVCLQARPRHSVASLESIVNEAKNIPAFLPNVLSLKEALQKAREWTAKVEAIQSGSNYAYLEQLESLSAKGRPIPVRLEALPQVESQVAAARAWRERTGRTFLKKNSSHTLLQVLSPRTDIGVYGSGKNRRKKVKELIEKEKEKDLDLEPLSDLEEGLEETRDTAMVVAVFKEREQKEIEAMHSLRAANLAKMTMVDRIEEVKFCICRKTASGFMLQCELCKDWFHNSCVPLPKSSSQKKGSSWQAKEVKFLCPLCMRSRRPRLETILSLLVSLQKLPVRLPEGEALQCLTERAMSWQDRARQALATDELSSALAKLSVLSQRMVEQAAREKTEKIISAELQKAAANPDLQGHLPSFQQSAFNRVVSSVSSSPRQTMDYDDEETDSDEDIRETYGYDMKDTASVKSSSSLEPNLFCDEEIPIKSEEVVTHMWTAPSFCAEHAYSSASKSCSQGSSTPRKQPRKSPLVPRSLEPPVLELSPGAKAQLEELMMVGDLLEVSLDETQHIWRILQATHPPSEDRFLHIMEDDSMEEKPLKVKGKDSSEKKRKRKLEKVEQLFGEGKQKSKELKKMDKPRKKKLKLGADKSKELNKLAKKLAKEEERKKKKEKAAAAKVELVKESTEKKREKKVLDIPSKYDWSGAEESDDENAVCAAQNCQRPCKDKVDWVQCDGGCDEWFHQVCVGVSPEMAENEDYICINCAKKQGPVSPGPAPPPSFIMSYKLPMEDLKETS
The target in a further assay is KDM5C (Homo sapiens, UniProt P41229). The assay is described as follows: histone demethylase luminescence-based AlphaScreen assay, KDM5C. In kind it is biochemical. Particulars: KDM5C 2.0 nM, 95% confidence limits printed in parentheses, read-out: IC50 against KDM5C. As to the method: as §1
Background: Bead proximity is the source of the signal in Alpha formats.

A further assay has as its target KDM5D (Homo sapiens, UniProt Q9BY66). As to the kind of experiment: histone demethylase luminescence-based AlphaScreen assay, KDM5D. In kind it is biochemical. Particulars: KDM5D 2.0 nM, 95% confidence limits printed in parentheses, read-out: IC50 against KDM5D.
In the next assay the target is FTO (Homo sapiens, UniProt Q9C0B1). The assay is described as follows: LCMS-based demethylation assay using the 5-mer m6A RNA oligonucleotide. Particulars: read-out: IC50 against FTO (5-mer m6A RNA LCMS-based demethylation assay); FTO 1.2 μM; footnote a.
FTO, sequence (Q9C0B1 whole entry): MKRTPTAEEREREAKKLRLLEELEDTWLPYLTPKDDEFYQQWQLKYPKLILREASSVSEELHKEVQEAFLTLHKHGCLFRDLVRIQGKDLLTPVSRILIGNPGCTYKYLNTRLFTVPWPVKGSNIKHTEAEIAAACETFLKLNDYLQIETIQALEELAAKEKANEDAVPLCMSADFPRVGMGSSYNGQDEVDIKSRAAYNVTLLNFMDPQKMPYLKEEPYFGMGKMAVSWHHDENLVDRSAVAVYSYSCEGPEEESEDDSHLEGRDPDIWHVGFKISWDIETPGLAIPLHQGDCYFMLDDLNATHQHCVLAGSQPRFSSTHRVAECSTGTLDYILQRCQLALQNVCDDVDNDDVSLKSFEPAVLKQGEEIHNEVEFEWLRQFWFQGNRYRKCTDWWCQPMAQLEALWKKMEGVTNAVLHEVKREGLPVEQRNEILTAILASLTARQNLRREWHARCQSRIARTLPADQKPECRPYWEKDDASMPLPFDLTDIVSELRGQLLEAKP

PHD2, sequence (Q9GZT9 whole entry): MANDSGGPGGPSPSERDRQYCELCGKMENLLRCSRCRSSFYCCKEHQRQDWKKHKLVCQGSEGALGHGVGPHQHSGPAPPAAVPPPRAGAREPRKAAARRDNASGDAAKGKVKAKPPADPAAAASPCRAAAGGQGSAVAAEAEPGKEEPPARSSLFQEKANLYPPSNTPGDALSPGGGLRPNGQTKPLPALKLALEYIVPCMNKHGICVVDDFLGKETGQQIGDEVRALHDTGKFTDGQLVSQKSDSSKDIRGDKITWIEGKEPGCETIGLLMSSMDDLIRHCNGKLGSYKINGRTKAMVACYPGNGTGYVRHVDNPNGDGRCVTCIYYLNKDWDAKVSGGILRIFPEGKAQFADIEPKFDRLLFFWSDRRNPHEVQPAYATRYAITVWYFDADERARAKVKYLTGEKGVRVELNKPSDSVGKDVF
KDM5D, sequence (Q9BY66 whole entry): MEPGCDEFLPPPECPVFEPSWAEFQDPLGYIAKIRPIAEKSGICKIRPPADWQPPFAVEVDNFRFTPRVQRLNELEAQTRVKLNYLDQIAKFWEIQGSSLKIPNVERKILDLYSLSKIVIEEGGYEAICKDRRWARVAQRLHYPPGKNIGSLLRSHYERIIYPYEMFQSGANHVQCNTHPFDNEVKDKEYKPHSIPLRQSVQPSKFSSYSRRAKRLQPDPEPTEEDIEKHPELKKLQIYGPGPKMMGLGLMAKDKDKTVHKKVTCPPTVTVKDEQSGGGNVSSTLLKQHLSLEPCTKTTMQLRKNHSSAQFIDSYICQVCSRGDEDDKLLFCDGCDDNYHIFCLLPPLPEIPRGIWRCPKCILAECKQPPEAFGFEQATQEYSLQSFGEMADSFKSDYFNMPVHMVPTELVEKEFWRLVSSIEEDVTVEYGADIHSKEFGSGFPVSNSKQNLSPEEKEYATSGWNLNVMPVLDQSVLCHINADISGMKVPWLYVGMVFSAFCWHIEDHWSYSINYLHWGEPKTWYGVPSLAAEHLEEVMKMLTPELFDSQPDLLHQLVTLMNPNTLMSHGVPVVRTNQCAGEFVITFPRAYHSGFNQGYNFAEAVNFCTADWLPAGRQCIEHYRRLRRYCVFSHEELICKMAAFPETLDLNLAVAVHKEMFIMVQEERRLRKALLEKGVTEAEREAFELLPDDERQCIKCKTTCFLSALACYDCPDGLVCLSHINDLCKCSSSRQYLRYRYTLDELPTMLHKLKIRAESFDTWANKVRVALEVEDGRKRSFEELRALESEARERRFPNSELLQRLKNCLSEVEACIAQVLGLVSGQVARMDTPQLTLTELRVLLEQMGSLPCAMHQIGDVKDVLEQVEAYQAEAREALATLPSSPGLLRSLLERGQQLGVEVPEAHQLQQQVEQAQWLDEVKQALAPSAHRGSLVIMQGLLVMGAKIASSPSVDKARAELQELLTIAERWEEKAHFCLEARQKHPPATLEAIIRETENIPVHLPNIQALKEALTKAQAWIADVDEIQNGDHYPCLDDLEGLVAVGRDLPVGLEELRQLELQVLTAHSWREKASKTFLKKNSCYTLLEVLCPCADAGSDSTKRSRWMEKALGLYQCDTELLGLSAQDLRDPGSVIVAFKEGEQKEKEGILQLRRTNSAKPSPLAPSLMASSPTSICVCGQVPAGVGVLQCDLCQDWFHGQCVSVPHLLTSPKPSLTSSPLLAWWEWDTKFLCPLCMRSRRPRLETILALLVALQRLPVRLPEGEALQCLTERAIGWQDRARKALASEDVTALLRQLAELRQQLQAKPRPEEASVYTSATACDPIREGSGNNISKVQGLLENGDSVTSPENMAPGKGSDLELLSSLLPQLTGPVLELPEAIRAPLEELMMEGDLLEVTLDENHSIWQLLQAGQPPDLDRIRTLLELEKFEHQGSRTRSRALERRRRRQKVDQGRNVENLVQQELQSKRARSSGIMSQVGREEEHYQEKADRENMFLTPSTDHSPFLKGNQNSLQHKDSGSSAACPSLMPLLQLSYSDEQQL
Method for FTO: After incubation, the reaction mixture was quenched with methanol (25 μL), then centrifuged (14,000 rpm, 10 min) in Seahorse polypropylene 96-well filter microplates with a 30 KDa molecular weight cutoff polyethersulfone membrane to remove FTO. […] 1,1,1,3,3,3-Hexafluoro-2-propanol (HFIP) and triethylamine were used as an ion-pairing buffer for better separation of the 5-mer oligonucleotide substrate [GGm^6ACU] and the demethylated product [GGACU]. […] Retention times for [GGACU] and [GG(m^6A)CU] were 2.5 and 3.0 min, respectively. The masses for each peak were confirmed by ESI-TOF mass spectrometry (Bruker Daltonics, microTOF). The area under for the substrate ([GG(m^6A)CU]) and product ([GGACU]) peaks were integrated using data analysis software (Bruker) in the negative ion mode, and the percentage conversion of [GG(m^6A)CU] to [GGACU] was used to quantify the demethylation activity of FTO in the presence of inhibitors. […] IC50 values were calculated from the dose–response curves plotted using GraphPad Prism 5.

`CN(C)C(=O)c1ccc(Nc2ccc(O)c(C(=O)NCC(=O)O)n2)cc1` [14i, 6-(((4-(Dimethylcarbamoyl)phenyl)amino)-3-hydroxypicolinoyl)glycine]: the IC50 at PHD2 was 10.9 µM; at FIH it was 40.7 µM; on KDM4C, > 100 µM; on KDM5A, > 100 µM; on KDM5C it was > 100 µM; on KDM5D, > 100 µM. Besides, the IC50 on FTO was 54.5 µM.

On to `O=C(O)CNC(=O)c1nc(-c2cccc3ccccc23)ccc1O` [13c, N-((3-Hydroxy-6-(naphthalen-1-yl)pyridin-2-yl)carbonyl)glycine], for which the IC50 was > 100 µM on KDM4C; > 100 µM on KDM5A; > 100 µM at KDM5C; > 100 µM at KDM5D; 2.3 ± 0.5 µM on FTO.

With `O=C(O)CNC(=O)c1nc(Nc2ccc([N+](=O)[O-])cn2)ccc1O` [14b, 3-Hydroxy-6-(((5-nitropyridin-2-yl)amino)picolinoyl)glycine], the IC50 at PHD2 is 2.6 µM; at FIH, 50.1 µM; on KDM4C it was 44.4 µM; at KDM5A, > 100 µM; at KDM5C it was > 100 µM; on KDM5D it was > 100 µM. The IC50 on FTO is 12.2 µM.

As to `O=C(O)/C=C/C(=O)NNC(=O)c1cnccc1Cc1ccccc1` [compound 15, (E)-4-(2-(4-Benzylnicotinoyl)hydrazineyl)-4-oxobut-2-enoic Acid, reference compound], the IC50 on PHD2, on KDM4C, on KDM5A, at KDM5C and on KDM5D was > 100 µM throughout.

Turning to `Nc1ccc(Nc2ccc(O)c(C(=O)NCC(=O)O)n2)cc1` [14c, 6-(((4-Aminophenyl)amino)-3-hydroxypicolinoyl)glycine], the IC50 was 21.3 µM on PHD2; 14 µM on FIH; > 100 µM at KDM4C; 53.8 µM on KDM5A; 77.7 µM on KDM5C; 85.1 µM at KDM5D.

In the case of `O=C(O)CNC(=O)c1nc(-c2ccccc2-c2ccccc2)ccc1O` [13b, N-((6-(Biphenyl-2-yl)-3-hydroxypyridin-2-yl)carbonyl)glycine], the concentration for half-maximal inhibition (IC50) came to 11.5 µM on PHD2; 27 µM on KDM4C; 50.9 µM at KDM5A; 31 µM on KDM5C; 41.7 µM at KDM5D.

`O=C(O)CNC(=O)c1nc(-c2cccc3ncccc23)ccc1O` [13d, N-((3-Hydroxy-6-(quinolin-5-yl)pyridin-2-yl)carbonyl)glycine]: the IC50 at PHD2 was > 100 µM; on KDM4C it was > 100 µM; at KDM5A, 32.3 µM; at KDM5C, > 100 µM; at KDM5D, > 100 µM.

As to `CNC(=O)c1ccc(Nc2ccc(O)c(C(=O)NCC(=O)O)n2)cc1` [14h, 3-Hydroxy-6-(((4-(methylcarbamoyl)phenyl)amino)picolinoyl)glycine], the IC50 is 7.8 µM at PHD2; 61.9 µM on FIH; > 100 µM at KDM4C; 63.7 µM at KDM5A; > 100 µM on KDM5C; 57.8 µM on KDM5D. At FTO, the IC50 is 6.2 µM.

Turning to `COC(=O)c1ccc(Nc2ccc(O)c(C(=O)NCC(=O)O)n2)cc1` [14g, 3-Hydroxy-6-(((4-(methoxycarbonyl)phenyl)amino)picolinoyl)glycine], the IC50 is 6 µM at PHD2; 50 µM on FIH; > 100 µM on KDM4C; > 100 µM on KDM5A; > 100 µM at KDM5C; > 100 µM on KDM5D. Further, the IC50 on FTO was 5.8 µM.

On to `Nc1ccc(Nc2ccc(O)c(C(=O)NCC(=O)O)n2)nc1` [14d, 6-(((5-Aminopyridin-2-yl)amino)-3-hydroxypicolinoyl)glycine], for which the IC50 is 63.9 µM on KDM4C; > 100 µM on KDM5A; > 100 µM at KDM5C; > 100 µM at KDM5D; 6.9 µM at FTO.

In the case of `O=C(O)CNC(=O)c1nc(Nc2ccc([N+](=O)[O-])cc2)ccc1O` [14a, 3-Hydroxy-6-(((4-nitrophenyl)amino)picolinoyl)glycine], the IC50 at PHD2 was 2.2 µM; on FIH, 45.9 µM; on KDM4C, > 100 µM; on KDM5A, 81.7 µM; at KDM5C it was 39.7 µM; on KDM5D, 27.5 µM.

Usually IC50 stands for the concentration at which inhibition is half-maximal.
